Assay results: patent US9486461B2, “Methods and compositions for inducing apoptosis by stimulating ER stress” (UNIVERSITY OF SOUTHERN CALIFORNIA, priority 2007, dated 2016)

Tests used:
[1] = system: LN229 cells; test: Colony formation assay, LN229; assay type: cell-based, human; conditions: LN229: 5 nM BZM, 60 μM CXB, 40 μM DMC, alone or combined; 48 hours, colonies two weeks thereafter
Description: Representative sections are shown. (B) Quantitative analysis of combination drug effects. […] Cell viability was determined by trypan blue exclusion assay.
The different small interfering RNAs (siRNA) were synthesized at the microchemical core laboratory of the University of Southern California/Norris Comprehensive Cancer Center; their sequences are described in ref. 32. Transfections of cells with these siRNAs and subsequent analysis of cell survival by colony formation assay have been described in detail elsewhere (32).

[2] = system: T98G glioblastoma cell line; test: MTT assay, T98G; assay type: cell-based; conditions: Homo sapiens, 48 h, read-out: IC50 (50% inhibition of cell growth)
Description: (§1) For comparison purposes to the known anti-multiple myeloma effects of bortezomib, the RPMI/8226 multiple myeloma cell line was included in (A).
(§2) 3-(4,5-Dimethylthiazol-2-yl)-2,5-diphenyltetrazolium bromide (MTT) assays were performed in 96-well plates with the use of 3.0×10^3 to 8.0×10^3 cells per well as described in detail elsewhere (19).

[3] = system: polyubiquitinated proteins in U251 cells; test: Western blot of polyubiquitinated proteins, U251; assay type: cell-based, human; conditions: U251, increasing concentrations, 24 hours
Description: Total cell lysates were analyzed by Western blot with specific antibodies to ubiquitin, GRP78, CHOP, and caspase 4. Actin was used as a loading control. […] Note that in the caspase 4 blots several non-specific background bands were observed (consistent with similar observations in the literature); the specific bands were identified with the use of various controls (not shown) and comparison to the literature.
(§3) Total cell lysates were prepared and analyzed by Western blot analysis as described earlier (19). Immunohistochemical analysis of protein expression in tumor tissues was performed with the use of the Vectastain avidin-biotin complex method kit (Vector Laboratories) as described previously (32). The primary antibodies were purchased from Cell Signaling Technology or Santa Cruz Biotechnology, Inc. and used according to the manufacturers' recommendations. All immunoblots and stainings were repeated at least once to confirm the results.

[4] = system: CHOP, GRP78, caspase 4 in U251 glioblastoma cells; test: Western blot of ER stress indicators in U251 cells; assay type: cell-based, human; conditions: U251, increasing concentrations, 24 hours
Description: U251 glioblastoma cells were cultured in the presence of 1 μM thapsigargin (Tg) or 60 μM DMC for various times, as indicated. Total cell lysates were prepared and analyzed by Western blot with specific antibodies to the ER stress proteins GRP78, CHOP, and caspase 4 (Casp 4). Actin was used as a loading control.
Shown are (A) time kinetics at 50 μM of each drug, and (B) concentration dependence after 15 hours of incubation.
Shown are (FIG. 7A) time kinetics at 50 μM of each drug, and (FIG. 7B), concentration dependence after 15 hours of incubation.
U251 glioblastoma cells were cultured for 24 hours in the presence of increasing concentrations of (A) bortezomib (BZM) or (B) DMC. Total cell lysates were analyzed by Western blot with specific antibodies to ubiquitin, GRP78, CHOP, and caspase 4. Actin was used as a loading control.
Total cell lysates were prepared by lysis of cells with radioimmunoprecipitation assay buffer (28), and protein concentrations were determined using the bicinchoninic acid protein assay reagent (Pierce, Rockford, Ill.). For Western blot analysis, 50 Ag of each sample were processed as described (29). The primary antibodies were purchased from Cell Signaling Technologies (Beverly, Mass.), Cayman Chemical (Ann Arbor, Mich.), or Santa Cruz Biotechnology, Inc. (Santa Cruz, Calif.) and used according to the manufacturer's recommendations. The secondary antibodies were coupled to horseradish peroxidase and detected by chemiluminescence using the SuperSignal West substrate from Pierce. All immunoblots were repeated at least once to confirm the results.
as §3

[5] = system: U87MG glioblastoma cell line; test: MTT assay, U87MG; assay type: cell-based; conditions: Homo sapiens, U-87 MG, 48 h, read-out: IC50 (50% inhibition of cell growth)
Description: as §1, §2

[6] = system: RPMI/8226 multiple myeloma cell line; test: MTT assay, RPMI/8226; assay type: cell-based; conditions: RPMI/8226, 48 h, not more sensitive than the glioblastoma cell lines
Description: as §1, §2

[7] = system: LN229 glioblastoma cell line; test: MTT assay, LN229; assay type: cell-based, human; conditions: Homo sapiens, LN-229, LN229, 48 h, read-out: IC50 (50% inhibition of cell growth)
Description: as §1, §2

[8] = system: U87 glioblastoma tumors; test: TUNEL assay of xenograft tumor tissue; conditions: U87MG xenograft, 1 mg/kg BZM and 7.5 mg/kg DMC individually or in combination, 50 h
[9] = system: U251 glioblastoma cells; test: MTT assay, U251; assay type: cell-based, human; conditions: Homo sapiens, U-251; U251, 48 h, MTT; read-out: IC50 (50% inhibition of cell growth)
Description: U251 glioblastoma cells were treated with different drugs, and various parameters of cell growth and cell death were comparatively analyzed. As controls, cells remained either non-treated (Co) or were treated with the solvent DMSO alone. (FIG. 8A) Cells were treated with 30 or 50 μM DMC for 48 hours and the effects on cell growth/survival and on cell death were determined by various assays. […] Below the three panels, the expression levels of the ER stress indicators CHOP, GRP78, and caspase 4 at the end of the 48 hour drug treatment is shown, as determined by Western blot analysis with specific antibodies (actin served as a loading control. (FIG. 8B) Cells were treated with various concentrations of different drugs for 48 hours, as indicated, and cell death was measured with the cell death ELISA kit. (FIG. 8C) Cells were treated with DMC or various coxibs and traditional NSAIDs for 48 hours, as indicated, and cell growth and survival was determined with the conventional MTT assay (control, non-treated cells were set at 100%). MTT assays were performed in 96-well plates with the use of 3.0-8.0×10^3 cells per well as described in detail elsewhere (34). In parallel, the expression levels of CHOP and GRP78 protein were determined by Western blot analysis. […]
as §2

[10] = system: CHOP protein in U87 glioblastoma tumor tissue; test: Immunohistochemical staining for CHOP in xenograft tumor tissue; assay type: in vivo, nude mice; conditions: U87MG xenograft, 1 mg/kg BZM and 7.5 mg/kg DMC individually or in combination, 50 h
Excerpt: In all cases, representative sections are shown.
Immunohistochemical analysis of protein expression in tumor tissues was done with the use of the Vectastain avidin-biotin complex method kit (Vector Laboratories, Burlingame, Calif.) according to the manufacturer's instructions. This procedure uses biotinylated secondary antibodies and a preformed avidin: biotinylated enzyme complex that has been termed the avidin-biotin complex method technique. As the primary antibody, we used anti-CHOP antibody (Santa Cruz Biotechnology) diluted 1:100 in 2% normal goat blocking serum.

CC(C)C[C@H](NC(=O)[C@H](Cc1ccccc1)NC(=O)c1cnccn1)B(O)O [bortezomib]
reduction of colony number [1]: ~50%
IC50 [2]: ~10 nM
accumulation of polyubiquitinated proteins [3]: highly elevated levels of polyubiquitinated proteins
expression of GRP78 and CHOP [4]: increased expression of GRP78 and CHOP
IC50 [5]: ~10 nM
sensitivity of RPMI/8226 cells [6]: high sensitivity
IC50 [7]: < 5 nM
TUNEL staining of tumor tissue [8]: increased TUNEL staining
IC50 [9]: ~10 nM
CHOP expression in tumor tissue [10]: larger fraction of CHOP-positive cells
